The text below walks through data of PubChem BioAssay (NCI).

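Results reflect a 48-hour exposure of cells in 96-well plates to compound at five concentrations. GI50 is the concentration that inhibits growth by half. TGI: total growth inhibition.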

Among the test systems are A498 renal; A549 NSCLC; CAKI-1 renal; COLO 205 colon; NCI-H460 lung; NCI-H522 lung; OVCAR-8 ovarian; RXF 393 renal; U251 CNS; UACC-257 melanoma.
Experiment in all cases: growth of human tumour cells (NCI), 48 h

As for `COc1c(OC(C)=O)cc2c(OC(C)=O)c1CC(C)CC(OC)C(O)C(C)/C=C(\C)C(OC(N)=O)C(OC)/C=C\C=C(/C)C(=O)N2` (stereo not given), the TGI with A498 renal was over 100 µM; with A549 NSCLC, over 100 µM; in the assay on CAKI-1 renal it was over 100 µM; with COLO 205 colon it was over 100 µM; in the assay on NCI-H460 lung it was over 100 µM; with NCI-H522 lung it was over 41.5 µM. Also, the TGI in the assay with OVCAR-8 ovarian, in the assay with RXF 393 renal, in the assay with U251 CNS and in the assay on UACC-257 melanoma was over 100 µM in each case.

Consider `N#Cc1ccc(Oc2nccc(-c3c(-c4ccc(F)cc4)ncn3C3CCNCC3)n2)cc1`, for which the GI50 with A498 renal is over 25 µM; in the assay on A549 NSCLC, over 16.3 µM; in the assay on CAKI-1 renal, over 25 µM; with COLO 205 colon, over 25 µM; with NCI-H460 lung it was 14 µM; with NCI-H522 lung it was over 11.9 µM. Further, the GI50 in the assay on OVCAR-8 ovarian is over 16.6 µM; in the assay with RXF 393 renal, 20.3 µM; in the assay on U251 CNS, 11.8 µM; in the assay on UACC-257 melanoma, over 22.7 µM. In addition, the TGI in the assay with A498 renal was over 25 µM; with A549 NSCLC, over 25 µM; with CAKI-1 renal it was over 25 µM; with COLO 205 colon it was over 25 µM; in the assay with NCI-H460 lung, over 25 µM; in the assay on NCI-H522 lung, over 15.6 µM. The TGI in the assay on OVCAR-8 ovarian, in the assay on RXF 393 renal, in the assay on U251 CNS and in the assay on UACC-257 melanoma was over 25 µM each time.

Consider `Nc1nnc2nc(CC(=O)/C=C/c3ccccc3)c(=O)[nH]n12`, for which the TGI in the assay with A498 renal, in the assay on A549 NSCLC, in the assay on CAKI-1 renal, in the assay with COLO 205 colon, with NCI-H460 lung and in the assay on NCI-H522 lung was over 100 µM throughout. Moreover, the TGI in the assay on OVCAR-8 ovarian, with RXF 393 renal, in the assay with U251 CNS and in the assay with UACC-257 melanoma was over 100 µM in each case.

In the case of `C[N+](C)(C)CCOP(=O)(O)OP(=O)([O-])OCC1CCC(n2ccc(N)nc2=O)O1` (stereo not given), the TGI in the assay on A498 renal, in the assay on A549 NSCLC, in the assay with CAKI-1 renal, in the assay with COLO 205 colon, with NCI-H460 lung and with NCI-H522 lung was over 100 µM in each case. Further, the TGI in the assay on OVCAR-8 ovarian, with RXF 393 renal, with U251 CNS and with UACC-257 melanoma was over 100 µM each time.

`O=C(CCCn1c2c(sc3ncccc32)c(=O)n2nnc(-c3ccccc3)c12)NCCc1cnc[nH]1`: the GI50 was 6.84 µM in the assay on A498 renal; 8.74 µM with A549 NSCLC; 2.89 µM with CAKI-1 renal; 6.28 µM in the assay with COLO 205 colon; 3.66 µM in the assay with NCI-H460 lung; 2.95 µM with NCI-H522 lung. The GI50 in the assay on OVCAR-8 ovarian is 0.0952 µM; in the assay on RXF 393 renal, 14.8 µM; in the assay with U251 CNS, 1.28 µM; with UACC-257 melanoma, 18.3 µM. For the same compound, the TGI in the assay on A498 renal was determined as 22.6 µM; in the assay with A549 NSCLC, 34.7 µM; in the assay with CAKI-1 renal it was 14.4 µM; in the assay with COLO 205 colon, 23.5 µM; in the assay with NCI-H460 lung, 13.1 µM; with NCI-H522 lung, 23 µM. The TGI was 17.3 µM with OVCAR-8 ovarian, 34 µM with RXF 393 renal, 14.9 µM in the assay on U251 CNS and 35.6 µM in the assay with UACC-257 melanoma.

Take `CCSC1(SCC)CCN(C=NC(C)(C)C)C1`: the TGI with A498 renal, with A549 NSCLC, with CAKI-1 renal, in the assay with COLO 205 colon, in the assay with NCI-H460 lung and in the assay on NCI-H522 lung was over 100 µM each time. Also, the TGI in the assay with OVCAR-8 ovarian, with RXF 393 renal, with U251 CNS and in the assay with UACC-257 melanoma was over 100 µM in each case.

As for `O=C(Oc1cccnc1)c1ccccc1Nc1ccnc(C(F)(F)F)c1`, the GI50 is 2.48 µM with A498 renal; 0.589 µM in the assay with A549 NSCLC; 0.0525 µM in the assay with CAKI-1 renal; 0.156 µM in the assay on COLO 205 colon; 0.342 µM in the assay on NCI-H460 lung; 0.402 µM in the assay on NCI-H522 lung. In addition, the GI50 in the assay with OVCAR-8 ovarian is 0.413 µM; in the assay with RXF 393 renal it was 0.473 µM; in the assay on U251 CNS, 0.33 µM; in the assay with UACC-257 melanoma, 35.7 µM. In addition, the TGI in the assay on A498 renal is 13.1 µM; with A549 NSCLC, over 100 µM; with CAKI-1 renal, 46.9 µM; with COLO 205 colon it was 0.363 µM; in the assay on NCI-H460 lung, over 35 µM; in the assay on NCI-H522 lung, over 100 µM. For the same compound, the TGI was over 100 µM in the assay with OVCAR-8 ovarian, 13.5 µM in the assay on RXF 393 renal, over 96.2 µM in the assay on U251 CNS and over 100 µM with UACC-257 melanoma.

With `OC(c1ccccc1)(c1ccccc1)c1ccccn1`, the TGI in the assay with A498 renal, in the assay with A549 NSCLC, with CAKI-1 renal, with COLO 205 colon, in the assay on NCI-H460 lung and in the assay with NCI-H522 lung was over 100 µM each time. The TGI in the assay with OVCAR-8 ovarian, in the assay on RXF 393 renal, in the assay on U251 CNS and with UACC-257 melanoma was over 100 µM each time.

As for `COc1cc(/C=C/C(=O)C(=Cc2ccc(F)c(F)c2)C(=O)/C=C/c2ccc(O)c(OC)c2)ccc1O`, the GI50 with A498 renal is 2 µM; in the assay on A549 NSCLC it was 3.34 µM; in the assay with CAKI-1 renal it was 3.51 µM; in the assay on COLO 205 colon it was 2.26 µM; with NCI-H460 lung it was 2.68 µM; in the assay on NCI-H522 lung, 1.45 µM. Besides, the GI50 in the assay on OVCAR-8 ovarian is 2.93 µM; in the assay with RXF 393 renal, 1.74 µM; in the assay on U251 CNS, 1.7 µM; with UACC-257 melanoma, 1.78 µM. The TGI with A498 renal worked out at 6.95 µM; with A549 NSCLC, 16.9 µM; in the assay on CAKI-1 renal, 20.2 µM; in the assay with COLO 205 colon it was 4.74 µM; in the assay with NCI-H460 lung, 6.96 µM; in the assay on NCI-H522 lung, 3.12 µM. For the same compound, the TGI with OVCAR-8 ovarian amounted to 11.1 µM; with RXF 393 renal, 3.2 µM; in the assay on U251 CNS, 3.51 µM; in the assay on UACC-257 melanoma, 4.37 µM.
